Experimental data reported in ChEMBL document CHEMBL1201862, “PubChem BioAssay data set” (2004).
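A five-concentration, 48-hour dose response in 96-well plates underlies each endpoint, interpolated linearly between surrounding concentrations. At the GI50, growth is halved.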 Calls of active or inactive are those of the source. No stated cut-off is given here; in the data, active = GI50 up to about 1.1 µM and inactive = higher.

What was measured:
Assay in all cases: DTP human tumour cell line panel, 48 h
[1] = tested on: SK-MEL-28
[2] = tested on: NCI-H460
[3] = tested on: OVCAR-3
[4] = tested on: NCI-H23
[5] = tested on: A498
[6] = tested on: M14
[7] = tested on: SK-MEL-5
[8] = tested on: K562
[9] = tested on: T47D
[10] = tested on: RPMI-8226
[11] = tested on: SF-295
[12] = tested on: Hs-578T
[13] = tested on: SNB-19
[14] = tested on: PC-3
[15] = tested on: LOX IMVI
[16] = tested on: MOLT-4
[17] = tested on: MCF7
[18] = tested on: CAKI-1
[19] = tested on: BT-549
[20] = tested on: HT-29

SMILES | GI50 [1] | GI50 [2] | GI50 [3] | GI50 [4] | GI50 [5] | GI50 [6] | GI50 [7] | GI50 [8] | GI50 [9] | GI50 [10] | GI50 [11] | GI50 [12] | GI50 [13] | GI50 [14] | GI50 [15] | GI50 [16] | GI50 [17] | GI50 [18] | GI50 [19] | GI50 [20]
CNC(=O)N(C1=NCC(C)S1)c1ccc(C)c(C)c1 (stereo not given) | 8.49 µM (inactive) | 3.36 µM (inactive) | 2.4 µM (inactive) | 7.08 µM (inactive) | 2.99 µM (inactive) | 1.13 µM (inactive) | 4.08 µM (inactive) | 0.923 µM (active) | 7.33 µM (inactive) | 2.81 µM (inactive) | 3.17 µM (inactive) | 4.31 µM (inactive) | 6.64 µM (inactive) | 3.98 µM (inactive) | 5.09 µM (inactive) | 4.81 µM (inactive) | 2.77 µM (inactive) | 2.7 µM (inactive) | 27.3 µM (inactive) | 2.52 µM (inactive)
O=C1C2CC[C@@H]3C(=O)C(Cl)(Cl)[C@@H]3CCC2C1(Cl)Cl (stereo not given in full) | > 100 µM (inactive) | > 100 µM (inactive) | 46.6 µM (inactive) | > 100 µM (inactive) | > 100 µM (inactive) | > 100 µM (inactive) | > 100 µM (inactive) | 44.8 µM (inactive) | > 100 µM (inactive) | 32.4 µM (inactive) | > 100 µM (inactive) | > 100 µM (inactive) | > 100 µM (inactive) | > 100 µM (inactive) | 44 µM (inactive) | 26.2 µM (inactive) | 42.8 µM (inactive) | > 100 µM (inactive) | > 100 µM (inactive) | > 100 µM (inactive)
O=[N+]([O-])C(/C(Cl)=C(\Cl)Br)=C(/Cl)SCc1ccccc1 | 2.31 µM (inactive) | 12.8 µM (inactive) | 2.74 µM (inactive) | 5.71 µM (inactive) | 8.04 µM (inactive) | 2.77 µM (inactive) | 2.9 µM (inactive) | 1.27 µM (inactive) | 3.68 µM (inactive) | 1.72 µM (inactive) | 16.9 µM (inactive) | 5.11 µM (inactive) | 17.8 µM (inactive) | 3.84 µM (inactive) | 1.86 µM (inactive) | 0.778 µM (active) | 2.95 µM (inactive) | 1.8 µM (inactive) | 2.56 µM (inactive) | 2.12 µM (inactive)
O=C(Nc1ccc(Cl)cc1)C(=O)C1=C(O)c2ccccc2OC1 | > 100 µM (inactive) | > 100 µM (inactive) | > 100 µM (inactive) | > 100 µM (inactive) | > 100 µM (inactive) | > 100 µM (inactive) | > 100 µM (inactive) | > 100 µM (inactive) | > 100 µM (inactive) | > 100 µM (inactive) | > 100 µM (inactive) | > 100 µM (inactive) | > 100 µM (inactive) | > 100 µM (inactive) | > 100 µM (inactive) | > 100 µM (inactive) | > 100 µM (inactive) | > 100 µM (inactive) | > 100 µM (inactive) | > 100 µM (inactive)
N#Cc1cc2c(n(C3OC(CO)C(O)C(O)C3O)c1=S)CCC2 (stereo not given) | > 100 µM (inactive) | > 100 µM (inactive) | > 100 µM (inactive) | > 100 µM (inactive) | > 100 µM (inactive) | > 100 µM (inactive) | > 100 µM (inactive) | > 100 µM (inactive) | > 100 µM (inactive) | > 100 µM (inactive) | > 100 µM (inactive) | > 100 µM (inactive) | > 100 µM (inactive) | > 100 µM (inactive) | > 100 µM (inactive) | > 100 µM (inactive) | > 100 µM (inactive) | > 100 µM (inactive) | > 100 µM (inactive) | > 100 µM (inactive)
O=C(c1ccccc1)N1CCN(C(=S)N(C(=O)c2ccccc2)c2ccccc2)C1=S | 3.27 µM (inactive) | 17.5 µM (inactive) | 4.21 µM (inactive) | 3.05 µM (inactive) | 4.02 µM (inactive) | 3.17 µM (inactive) | 13.5 µM (inactive) | 2.41 µM (inactive) | 4.68 µM (inactive) | 0.914 µM (active) | 12.6 µM (inactive) | 3.1 µM (inactive) | 13.3 µM (inactive) | 6.59 µM (inactive) | 1.9 µM (inactive) | 1.89 µM (inactive) | 3.13 µM (inactive) | 2.47 µM (inactive) | 3.85 µM (inactive) | 5.42 µM (inactive)
